Data reported in article PMC5118696, “Identification of inhibitors that dually target the new permeability pathway and dihydroorotate dehydrogenase in the blood stage of Plasmodium falciparum” (Scientific Reports, 2016).
Where two headings read alike, the source gives them in different places.

How the values were obtained:
[1] = test system: Hyp1-NLuc Plasmodium falciparum-infected erythrocytes (new permeability pathway, NPP); test: microbe, parasite or virus in culture; conditions: Erythrocyte, 0.33 h, read-out: % of control remaining
[2] = test system: Hyp1-NLuc Plasmodium falciparum-infected erythrocytes (new permeability pathway, NPP); test: microbe, parasite or virus in culture; conditions: Erythrocyte, 0.33 h, read-out: Mean RLU at 28 min (As % of DMSO control)

O=C(NC1CCN(Cc2ccccc2)CC1)c1cc2nc(-c3ccc(Cl)s3)cc(C(F)(F)F)n2n1 [MMV396635]
activity at 2 µM [1]: 101% | activity at 2 µM [2]: 101%

CCOc1cc2c(cc1OCC)C(c1cc(Cl)ccc1O)NCC2 (centres unmarked) [MMV000478]
activity at 2 µM [1]: 95.3% | activity at 2 µM [2]: 104%

COc1cccc(C=Cc2nc(=O)c3ccccc3o2)c1OC [MMV666693]
activity at 2 µM [1]: 29.9% | activity at 2 µM [2]: 75%

COc1ccc(C2=C(c3ccc(OC)cc3)C3(c4ccccc4)C(=O)C2(c2ccccc2)C2C(=O)N(c4ccc(C)cc4)C(=O)C23)cc1 (centres unmarked) [MMV666101]
activity at 2 µM [1]: 107% | activity at 2 µM [2]: 108%

N#Cc1nc(Cc2cccc3ccccc23)oc1N1CCN(C(c2ccccc2)c2ccccc2)CC1 [MMV396726]
activity at 2 µM [1]: 99.5% | activity at 2 µM [2]: 99.9%

CCOc1ccccc1NC(=O)CN1CCN(C(=O)c2ccco2)CC1 [MMV007791]
activity at 2 µM [1]: 108% | activity at 2 µM [2]: 106%

Cc1sc(NC(=O)c2ccccc2)c(C(c2cccs2)N2CCN(c3ccccc3)CC2)c1C (centres unmarked) [MMV396652]
activity at 2 µM [1]: 104% | activity at 2 µM [2]: 101%

CC(C)(C)c1ccc(C2CC3=Nc4ccccc4N(C(=O)c4ccccc4Cl)C(c4ccc(F)cc4)C3=C(O)C2)cc1 (centres unmarked) [MMV011436]
activity at 2 µM [1]: 106% | activity at 2 µM [2]: 106%

Oc1c(C(Nc2ccccn2)c2cccc(Oc3ccccc3)c2)ccc2cccnc12 (centres unmarked) [MMV665814]
activity at 2 µM [1]: 98.6% | activity at 2 µM [2]: 98.8%

CCOc1ccc(CN2CCN(CC(O)COc3ccc(OCC(O)CN4CCN(Cc5ccc(OCC)cc5)CC4)cc3)CC2)cc1 (centres unmarked) [MMV007092]
activity at 2 µM [1]: 98.2% | activity at 2 µM [2]: 105%

CCOC(=O)c1cnc2c(C)cc(C)cc2c1Nc1ccc(OC)c(OC)c1 [MMV008294]
activity at 2 µM [1]: 97.1% | activity at 2 µM [2]: 104%

CCOc1cc(Br)c(C(C)NC(=O)c2cccc(OC)c2)cc1OCC (centres unmarked) [MMV665796]
activity at 2 µM [1]: 115% | activity at 2 µM [2]: 106%

Cc1ccc(NC(=O)Nc2cccc(Cl)c2)cc1F [MMV000911]
activity at 2 µM [1]: 114% | activity at 2 µM [2]: 115%

COc1cc2c(cc1OC)C1=NNC(=O)C1=NC(C)(C)C2 [MMV084940]
activity at 2 µM [1]: 101% | activity at 2 µM [2]: 101%

O=c1nc(C=Cc2ccc(Br)cc2)oc2ccccc12 [MMV666599]
activity at 2 µM [1]: 94.3% | activity at 2 µM [2]: 102%

COc1ccccc1CNC(=O)CCn1c(=O)[nH]c2ccsc2c1=O [MMV019066]
activity at 2 µM [1]: 96.9% | activity at 2 µM [2]: 98.8%

CCOc1ccc(C=Cc2nc(=O)c3ccccc3o2)cc1 [MMV665940]
activity at 2 µM [1]: 31.3% | activity at 2 µM [2]: 61.5%

COc1cccc(-c2nn(C)c3sc(C(=O)NCCN4CCN(c5ccccc5F)CC4)cc23)c1 [MMV019064]
activity at 2 µM [1]: 118% | activity at 2 µM [2]: 110%

COc1ccccc1N1C(=N)SC(=Cc2ccc(OCc3ccccc3F)cc2)C1=O [MMV007199]
activity at 2 µM [1]: 62.6% | activity at 2 µM [2]: 86.7%

CCCn1c(=N)c(C(=O)NC2CCCCC2)cc2c(=O)n3cccc(C)c3nc21 [MMV008829]
activity at 2 µM [1]: 105% | activity at 2 µM [2]: 106%

OCCNc1nc(Nc2ccc(Cl)c(Cl)c2)nc2ccccc12 [MMV001041]
activity at 2 µM [1]: 95.1% | activity at 2 µM [2]: 97.4%

COc1ccccc1N1CCN(C(CNS(=O)(=O)c2ccc(Cl)cc2)c2cccnc2)CC1 (centres unmarked) [MMV665914]
activity at 2 µM [1]: 97.5% | activity at 2 µM [2]: 102%

CC(Oc1ccc(NC(=O)c2cccs2)cc1)C(=O)c1ccc(Cl)cc1 (centres unmarked) [MMV665886]
activity at 2 µM [1]: 84.1% | activity at 2 µM [2]: 86.9%

c1ccc(Cn2c(N=Nc3c(Nc4ccccc4)ccc4ccccc34)nc3ccccc32)cc1 [MMV666023]
activity at 2 µM [1]: 101% | activity at 2 µM [2]: 102%

O=C(O)C1Cc2c([nH]c3ccccc23)C(c2ccc(Cl)cc2Cl)N1 (centres unmarked) [MMV008138]
activity at 2 µM [1]: 102% | activity at 2 µM [2]: 102%

CCOc1ccc2nc(C)cc(Nc3ccc(Br)cc3)c2c1 [MMV006522]
activity at 2 µM [1]: 104% | activity at 2 µM [2]: 102%

Cc1cc(NC(=O)c2cccc(C(F)(F)F)c2)n(-c2nc(-c3ccc4c(c3)OCO4)cs2)n1 [MMV396681]
activity at 2 µM [1]: 102% | activity at 2 µM [2]: 106%

COC(=O)c1ccc(C2C3=C(O)CC(c4ccc(F)cc4)CC3=Nc3ccccc3N2C(=O)c2ccccc2)cc1 (centres unmarked) [MMV011438]
activity at 2 µM [1]: 89.7% | activity at 2 µM [2]: 92.2%

CCC(C)NCC(O)(c1ccc(Cl)cc1)c1ccc(Cl)cc1 (centres unmarked) [MMV665928]
activity at 2 µM [1]: 121% | activity at 2 µM [2]: 106%

CCCCc1c(CCC)c(=N)c2ccccc2n1C [MMV007764]
activity at 2 µM [1]: 111% | activity at 2 µM [2]: 110%

CCOc1c(Cl)cc(CNC(C)C(O)c2ccccc2)cc1OC (centres unmarked) [MMV665857]
activity at 2 µM [1]: 108% | activity at 2 µM [2]: 100%

Cc1sc(NC(=O)c2ccco2)c(C(c2cccnc2)N2CCC(Cc3ccccc3)CC2)c1C (centres unmarked) [MMV396663]
activity at 2 µM [1]: 92.5% | activity at 2 µM [2]: 97%

CC1=C(CC(=O)c2cccc([N+](=O)[O-])c2)C(=O)c2ccccc2C1=O [MMV666125]
activity at 2 µM [1]: 101% | activity at 2 µM [2]: 96.1%

Cc1ccc2c(C)nc(Nc3nc(C)cc(-c4ccccc4)n3)nc2c1 [MMV007041]
activity at 2 µM [1]: 98.8% | activity at 2 µM [2]: 104%

CCCCCCc1cc2cc(-c3csc(C=Cc4ccccc4)n3)c(=O)oc2cc1O [MMV666692]
activity at 2 µM [1]: 99.2% | activity at 2 µM [2]: 102%

Cn1c(=O)n(C)c2cc(CNCCNc3ccnc4cc(Cl)ccc34)ccc21 [MMV665875]
activity at 2 µM [1]: 88.8% | activity at 2 µM [2]: 95.9%

CCc1ccc(CNCC(O)c2ccccc2)cc1 (centres unmarked) [MMV665812]
activity at 2 µM [1]: 96.2% | activity at 2 µM [2]: 95.4%

CCOC(=O)C1=C(c2ccccc2)N=c2sc(=Cc3cc(C)n(-c4ccc(F)cc4)c3C)c(=O)n2C1c1cccc(OC)c1OC (centres unmarked) [MMV666601]
activity at 2 µM [1]: 103% | activity at 2 µM [2]: 105%

Cc1ccc(-c2cc3c(nn2)-c2ccccc2C3=O)cc1 [MMV666021]
activity at 2 µM [1]: 99.7% | activity at 2 µM [2]: 104%

CCCCCCOC(=O)C1=C(C)NC(=O)NC1c1ccccc1F (centres unmarked) [MMV007686]
activity at 2 µM [1]: 105% | activity at 2 µM [2]: 107%

Cc1ccc2nc(C)cc(Nc3cccc(C(F)(F)F)c3)c2c1 [MMV000326]
activity at 2 µM [1]: 118% | activity at 2 µM [2]: 110%

COc1ccc(-n2ccnc2SCC(=O)Nc2cc(C)ccc2C)c(OC)c1 [MMV019258]
activity at 2 µM [1]: 115% | activity at 2 µM [2]: 117%

N=c1n(CCN2CCCCC2)c2ccccc2n1CC(=O)c1ccc(Cl)c(Cl)c1 [MMV396723]
activity at 2 µM [1]: 91.7% | activity at 2 µM [2]: 98.3%

Cc1cccc(N2C(=O)C3C(C2=O)C2(c4ccccc4)C(=O)C3(c3ccccc3)C(c3ccc4c(c3)OCO4)=C2c2ccc3c(c2)OCO3)c1 (centres unmarked) [MMV007228]
activity at 2 µM [1]: 107% | activity at 2 µM [2]: 99.5%

CCOc1ccc(CCNC(=O)c2cccs2)cc1OCC [MMV007978]
activity at 2 µM [1]: 114% | activity at 2 µM [2]: 112%

O=C(Nc1ccc(CN2CCOCC2)cc1)c1ccc(-c2ccc(Br)cc2)o1 [MMV665901]
activity at 2 µM [1]: 105% | activity at 2 µM [2]: 99.8%

CN1CCN(c2ncnc3c2[nH]c2ccc(Cl)cc23)CC1 [MMV396704]
activity at 2 µM [1]: 95.6% | activity at 2 µM [2]: 95.9%

CC(C)(C)CC(C)(C)NCC(O)COc1ccc(Cl)cc1Cl (centres unmarked) [MMV396794]
activity at 2 µM [1]: 109% | activity at 2 µM [2]: 111%

Oc1c2c(nc3ccccc13)CCCC2 [MMV665843]
activity at 2 µM [1]: 111% | activity at 2 µM [2]: 109%

COc1ccc2c(c1OC)C(=O)N1c3ccccc3N=C(c3ccc(C)cc3)CC21 (centres unmarked) [MMV000917]
activity at 2 µM [1]: 94.9% | activity at 2 µM [2]: 90.9%

COc1ccc2c(c1)C1(Nc3ccccc3-c3nc4ccccc4n31)C(=O)N2 (centres unmarked) [MMV396749]
activity at 2 µM [1]: 104% | activity at 2 µM [2]: 103%

Oc1ccc(Cl)cc1CNc1nc2ccccc2[nH]1 [MMV665850]
activity at 2 µM [1]: 110% | activity at 2 µM [2]: 105%

CCc1ccc(Nc2cc(C)c3ccc(O)cc3n2)cc1 [MMV000570]
activity at 2 µM [1]: 107% | activity at 2 µM [2]: 106%

CCOc1ccc(-c2nc(NC(=O)c3cccc(S(C)(=O)=O)c3)sc2C)cc1 [MMV665913]
activity at 2 µM [1]: 106% | activity at 2 µM [2]: 98.8%

Cc1ccc(C)c(-c2csc(Nc3ccc(C)c(C)c3)n2)c1 [MMV007654]
activity at 2 µM [1]: 91.8% | activity at 2 µM [2]: 94.4%

CCN(Cc1ccccc1)C1CCN(Cc2cc(Br)ccc2O)CC1 [MMV019127]
activity at 2 µM [1]: 107% | activity at 2 µM [2]: 109%

COc1ccc(N2CCN(C(CNC(=O)C3CCCCC3)c3ccc4c(c3)OCO4)CC2)cc1 (centres unmarked) [MMV019662]
activity at 2 µM [1]: 114% | activity at 2 µM [2]: 103%

COc1cc(OC)cc(N2C(=O)N(Cc3ccc(C(C)(C)C)cc3)c3ccccc3S2(=O)=O)c1 [MMV008173]
activity at 2 µM [1]: 115% | activity at 2 µM [2]: 103%

Cc1cc(NC(=O)C2c3ccccc3C(=O)N(CC(C)C)C2c2cccs2)no1 (centres unmarked) [MMV006429]
activity at 2 µM [1]: 98.1% | activity at 2 µM [2]: 99.6%

O=C(CSc1nccn2nc(-c3ccccc3)cc12)Nc1cc(C(F)(F)F)ccc1Cl [MMV396678]
activity at 2 µM [1]: 107% | activity at 2 µM [2]: 107%

c1ccc(-c2ccc(-c3nc4ccccc4[nH]3)cc2)cc1 [MMV665891]
activity at 2 µM [1]: 122% | activity at 2 µM [2]: 109%

CCN1CCN(c2cc(C)c3cc(NC(=O)c4ccc(OC)c(OC)c4)ccc3n2)CC1 [MMV019074]
activity at 2 µM [1]: 118% | activity at 2 µM [2]: 104%

CCOC(=O)c1cnc2ccc(CC)cc2c1O [MMV007116]
activity at 2 µM [1]: 85.3% | activity at 2 µM [2]: 103%

O=C(NC1CCCC1)c1ccc(N2CCC(NCc3cccc(C(F)(F)F)c3)CC2)cc1 [MMV666070]
activity at 2 µM [1]: 123% | activity at 2 µM [2]: 111%

CCCCOC(=O)c1ccc(Nc2cc(C)nc3ccc(OC)cc23)cc1 [MMV665797]
activity at 2 µM [1]: 107% | activity at 2 µM [2]: 104%

CCCCC(O)(c1ccc(Cl)cc1)C(CN1CCOCC1)c1ccc(Cl)cc1 (centres unmarked) [MMV000619]
activity at 2 µM [1]: 114% | activity at 2 µM [2]: 108%

O=c1nc(C=Cc2ccc(Cl)cc2)oc2ccccc12 [MMV007977]
activity at 2 µM [1]: 105% | activity at 2 µM [2]: 110%
